Assays:
[1] = system: MDA-MB231-TaxR; test: Sulforhodamine B (SRB) assay; format: cell-based; conditions: Homo sapiens, MDA-MB231-TaxR paclitaxel-resistant breast cancer cells, 48 h
Excerpt: We had initially determined that quinolone chalcones were promising anti-proliferative through a first round screening and identified CTR-17 and CTR-20 as favorable structures for anticancer activity. […] We carried out a comparative SAR study to determine if we could further optimize the quinolone chalcone to maximize efficacy. The Sulforhodamine B (SRB) assay was used to measure the anti-proliferative/cell killing activities of CTRs, for which several different cell lines were use: the cervical cancer HeLa, the breast cancer cell lines MDA-MB231, MDA-MB468, MDA-MB231TaxR (an induced paclitaxel-resistant sub-cell line of the MDA-MB231[9]) and MCF7. In addition, a subset was tested against the melanoma cell lines MZ-MEL-3.1, Mel-SOE, UKRV-Mel-38, UKRV-Mel-17 and MDA-MB-435 (Table 1, Supplemental Table S1).
(§1) The SRB assay was used to assess drug-induced cytotoxicity and cell proliferation as previously described[2],[33],[34] with a few modifications. Briefly, cells were plated 10,000 to 25,000 cells/cm^2 in 96-well plates (100 µl medium) and allowed to adhere overnight. The cell counts were different for each cell line to ensure optimal cell growth for the duration of the assay. Eight different concentrations of compound solutions using 2–4 times serial dilutions (100 µl). Cells were then incubated for an additional 48 h and then fixed with 100 µl ice-cold 10% (w/v) trichloroacetic acid (TCA) (without removing the cell medium, final concentration, 3.3% of TCA) and stained with 0.4% SRB (w/v) in 1% acetic acid (v/v). The relative growth rate (%) was calculated for each of the compound concentrations according to the following formula: 100 * (T − T0)/(C − T0), in which T is the optical density (OD) after exposure to a certain concentration of the compound after 48 h, T0 is the OD at the start of drug exposure (time zero) and C is the control growth. The GI50 for each compound was obtained from a non-linear sigmoidal dose–response (variable slope) curve fitted by GraphPad Prism v.4.03 software.

[2] = system: Mel-SOE; test: Sulforhodamine B (SRB) assay; format: cell-based; conditions: Mel-SOE melanoma cells, 48 h
Procedure: (§2) The human MDA-MB-231, MCF7, MDA-MB-468, RPMI-8226 and HeLa cell lines were purchased from ATCC and maintained in Dulbecco's Modified Eagle Medium (DMEM)—high glucose supplemented with 10% fetal bovine serum (FBS) and antibiotics/antimycotics. Cell line authentication was carried out by Genetica DNA Laboratories (Burlington, NC) using a short tandem repeat (STR) profiling method (March 2015; July 2015; September 2016). Melanoma cells E-055 (MZ-Mel-3), E-097 (Mel-SOE), E-112 (UKRV-Mel-38), E-157 (UKRV-Mel-17) were obtained from the European Searchable Tumour Line Database (ESTDAB) cell bank (a kind gift of Dr. Graham Pawelec, Tubingen University, Germany). MDA-MB-435 was purchased from the Division of Cancer Treatment and Diagnosis Tumor Repository. All melanoma cells were cultured in Roswell Park Memorial Institute (RPMI) medium supplemented with 10% FBS and P/S/antimycotics. Primary human epidermal melanocytes from normal adult abdominal skin were purchased from ATCC (cat # PCS-200–013) and Cell Applications (cat#104-05a). The melanocytes were cultured in the media supplied by the companies.
as §1

[3] = system: UKRV-Mel-17; test: Sulforhodamine B (SRB) assay; format: cell-based; conditions: UKRV-Mel-17 melanoma cells, 48 h
Procedure: as §2, §1

[4] = system: MZ-Mel-3; test: Sulforhodamine B (SRB) assay; format: cell-based; conditions: MZ-Mel-3 melanoma cells, 48 h
Procedure: as §2, §1

[5] = system: MDA-MB468; test: Sulforhodamine B (SRB) assay; format: cell-based; conditions: Homo sapiens, MDA-MB-468, MDA-MB468 breast cancer cells, 48 h
Procedure: as §2, §1

[6] = system: MDA-MB231; test: Sulforhodamine B (SRB) assay; format: cell-based; conditions: Homo sapiens, MDA-MB-231; MDA-MB231 breast cancer cells, 48 h, SRB
Procedure: as §2, §1

[7] = system: UKRV-Mel-38; test: Sulforhodamine B (SRB) assay; format: cell-based; conditions: UKRV-Mel-38 melanoma cells, 48 h
Procedure: as §2, §1

[8] = system: HeLa; test: Sulforhodamine B (SRB) assay; format: cell-based; conditions: Homo sapiens; HeLa cervical cancer cells, 48 h, SRB
Procedure: as §2, §1

[9] = system: MDA-MB435; test: Sulforhodamine B (SRB) assay; format: cell-based; conditions: Homo sapiens, MDA-MB-435, MDA-MB435 cells, 48 h
Procedure: as §2, §1

[10] = system: MCF7; test: Sulforhodamine B (SRB) assay; format: cell-based; conditions: Homo sapiens; MCF7 breast cancer cells, 48 h, SRB
Procedure: as §2, §1

[11] = system: cancer cell lines (breast cancer, melanoma, cervical cancer); test: SRB assay, average GI50 over cancer cell lines; format: cell-based
Procedure: as §1

[12] = system: HeLa cells; test: Cell cycle analysis by flow cytometry; format: cell-based, human; conditions: 3× GI50, 12 or 24 h, HeLa and UKRV-Mel-38 (Supplemental Fig. S11)
Procedure: Figure 5 CTR-21 arrests cells at G2/M, eventually leading to cell death by apoptosis. (a) Effects of CTR-21 on the cell cycle progression of HeLa and E112 cells. […] (b) Cell morphology of CTR-21 arrested cells. HeLa cells were treated with 30 nM of CTR-21 for 12 h, fixed with methanol and immunostained with α-tubulin or γ-tubulin, and counterstained with DAPI. Bar = […]. (c) CTR-21 promotes PARP cleavage. […] GAPDH was used as a loading control.
Cell cycle progression was determined using flow cytometry. UKRV-Mel-38 and HeLa cells were plated onto 10 cm plate at a density of 0.5 million and treated them with or without the compounds the following day for 12, 24 or 48 h. Cells were then harvested and centrifuged at 1000 rpm for 5 min, washed in PBS and then fixed with ice-cold ethanol (70%) for at least 24 h at − 20 °C. The cells were centrifuged, re-suspended in PBS solution, followed by centrifugation. The cell pellet was then stained with 100 μg/mL propidium iodide (PI) and 100 μg/mL RNase A in distilled water for at least 1 h. DNA content was measured using a Beckmann Coulter Cytomics FC500 (Beckman Coulter, Fullerton, CA), and the proportion of cell populations in G0/G1, S, and G2/M phases of cell cycle was calculated on the basis of DNA distribution histograms using CXP software (Beckman Coulter, Fullerton, CA).

[13] = target: T1, porcine tubulin (Sus scrofa, UniProt P02550+P02554); test: In vitro tubulin polymerization assay; format: biochemical; conditions: 3 µM compound, 20 µM porcine tubulin, 37 °C, 60 min
T1 construct: purchased Cytoskeleton Inc., Denver, CO BK011P
T1 sequence (P02554 whole entry): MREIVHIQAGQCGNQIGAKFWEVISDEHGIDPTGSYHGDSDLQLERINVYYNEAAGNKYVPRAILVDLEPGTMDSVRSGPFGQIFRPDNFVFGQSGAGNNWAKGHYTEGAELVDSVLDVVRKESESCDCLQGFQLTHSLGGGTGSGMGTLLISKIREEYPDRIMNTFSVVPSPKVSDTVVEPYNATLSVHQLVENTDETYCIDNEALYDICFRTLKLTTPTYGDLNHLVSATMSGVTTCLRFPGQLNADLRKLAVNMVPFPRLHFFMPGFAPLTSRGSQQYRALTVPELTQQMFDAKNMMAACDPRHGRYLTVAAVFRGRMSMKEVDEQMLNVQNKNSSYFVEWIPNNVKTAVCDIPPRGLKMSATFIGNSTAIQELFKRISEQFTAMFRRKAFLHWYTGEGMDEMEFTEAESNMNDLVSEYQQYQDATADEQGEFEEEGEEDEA
T1 sequence (P02550 whole entry): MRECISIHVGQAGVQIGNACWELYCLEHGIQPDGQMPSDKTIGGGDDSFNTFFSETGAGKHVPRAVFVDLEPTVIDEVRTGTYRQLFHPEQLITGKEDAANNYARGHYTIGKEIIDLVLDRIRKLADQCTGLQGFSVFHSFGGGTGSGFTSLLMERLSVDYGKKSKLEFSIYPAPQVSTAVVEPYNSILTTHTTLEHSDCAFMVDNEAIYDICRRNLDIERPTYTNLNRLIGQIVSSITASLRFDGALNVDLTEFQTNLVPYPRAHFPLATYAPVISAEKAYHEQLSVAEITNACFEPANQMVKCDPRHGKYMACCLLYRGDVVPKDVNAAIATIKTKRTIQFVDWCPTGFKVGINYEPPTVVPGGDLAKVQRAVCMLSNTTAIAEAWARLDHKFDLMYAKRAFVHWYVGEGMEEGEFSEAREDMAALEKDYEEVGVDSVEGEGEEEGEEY
Procedure: Spontaneous polymerization of 20 µM porcine tubulin was initiated with the addition of 1 mmol/L GTP at 37 °C and monitored every minute for 60 min in the presence of the indicated concentration of CTR-21, CTR-32, nocodazole, paclitaxel, or a DMSO vehicle control. To make the graph simpler, only 3 µM concentration is shown. […] A modified Dixon plot was used to determine the inhibitory concentration of CTR-21 and CTR-32 (Ki).
Microtubule assembly was assessed using a Tubulin Polymerization assay kit (BK011P; Cytoskeleton Inc., Denver, CO). […] Polymerization was started by incubating at 37 °C and followed by absorbance readings every 1 min at 340 nm for 1 h using a Synergy H4 plate reader.

| GI50 [1] [µM] | GI50 [5] [µM] | GI50 [6] [µM] | GI50 [8] [µM] | GI50 [9] [µM] | GI50 [10] [µM] | GI50 ([11]; average over the cell lines of Table 1 or Supplemental Table S1, read-out: average GI50) [µM] | SMILES | GI50 [2] [µM] | GI50 [3] [µM] | GI50 [4] [µM] | GI50 [7] [µM] | potency compared to CTR-17 [11] | cell cycle effect [12] | effect on tubulin polymerization [13] |
| --- | --- | --- | --- | --- | --- | --- | --- | --- | --- | --- | --- | --- | --- | --- |
| 7.09 ± 1.06 | 3.54 ± 0.06 | 6.51 ± 1.39 | 6.82 ± 1.39 | 4.72 ± 2.76 | 11.9 | 7.3 | COc1ccc2cc(/C=C/C(=O)c3ccccc3OC)c(=O)[nH]c2c1 [CTR-19, (E)-7-Methoxy-3-(3-(2-methoxyphenyl)-3-oxoprop-1-enyl) quinolin-2(1H)-one] | 10.1 | 11.2 | 6.83 ± 0.957 | 3.77 ± 0.206 | lower toxicity potency | arrests cells in G2/M, albeit at a much higher concentration | – |
| 0.131 ± 0.035 | 0.009 ± 0.003 | 0.003 ± 0.001 | 0.008 ± 0.001 | 0.004 ± 0.001 | 0.006 ± 0.001 | – | CC(=O)O[C@H]1C(=O)[C@@]2(C)[C@H]([C@H](OC(=O)c3ccccc3)[C@]3(O)C[C@H](OC(=O)[C@H](O)[C@@H](NC(=O)c4ccccc4)c4ccccc4)C(C)=C1C3(C)C)[C@]1(OC(C)=O)CO[C@@H]1C[C@@H]2O [Tax, paclitaxel, reference compound] | 0.06 ± 0.016 | 0.014 ± 0.004 | 0.058 ± 0.015 | 0.006 ± 0.001 | – | – | shorter nucleation phase, steeper growth phase, and reaches steady state quicker |

From paper PMC8566451, “Lead optimization of novel quinolone chalcone compounds by a structure–activity relationship (SAR) study to increase efficacy and metabolic stability” (Scientific Reports, 2021)
